Experimental data published in patent publication US8501992B2, “Hydroxyphenyl sulfonamides as antiapoptotic bcl inhibitors” (Bristol-Myers Squibb Company, priority 2008, dated 2013).

How the values were obtained:
Assay type in all cases: binding
Bcl-2 = molecular target: T1, Bcl-2 (Homo sapiens, UniProt P10415); test: Bcl2/Bim fluorescence polarization assay (FPA); conditions: BIM BH3 peptide 5 nM, Bcl-2 11 nM, Ki calculated from FPA data
T1 construct: without their C-terminal transmembrane domain; GST; made in house
T1 sequence (P10415 1-211 limits assumed): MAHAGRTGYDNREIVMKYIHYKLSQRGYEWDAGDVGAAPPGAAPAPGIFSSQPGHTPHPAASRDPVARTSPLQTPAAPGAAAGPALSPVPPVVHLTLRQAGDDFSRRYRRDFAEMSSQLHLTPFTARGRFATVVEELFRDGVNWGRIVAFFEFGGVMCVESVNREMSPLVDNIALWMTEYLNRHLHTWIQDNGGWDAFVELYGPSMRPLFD
Text: (§1) Compounds were profiled for their ability to disrupt in vitro binding interactions in fluorescence polarization assays (FPAs) using synthetic fluorochrome-labeled Bcl homology 3 (BH3) peptides derived from BIM [(FAM)-Ahx-[…]-NH2 (SEQ ID NO: 1) (GenBank Accession No. O43521)] or BAK [Ac-GQVGRQLAIIGE-LYS(FAM)-INR-NH2 (SEQ ID NO:2) (GenBank Accession No. Q16611) amino acid sequences and four bacterial recombinant proteins [Bcl-b (GenBank Accession No. Q9HD36), Bcl-2 (GenBank Accession No. P10415), Bcl-Xl (GenBank Accession No. Q07817), Mcl-1 (GenBank Accession No. Q07820)] without their C-terminal transmembrane domain. Proteins were purified from bacterial lysates using their glutathione S-transferase (GST)-tag (Bcl-b, Bcl-2, Mcl-1) or His6-tag (Bcl-Xl) and following one-step affinity chromatography procedures. Dissociation constants (Kd) for peptide binding protein were determined by fluorescence polarization in FPAs measuring BIM BH3 peptide binding Bcl-b, Mcl-1 or Bcl-2 protein or BAK BH3 peptide binding Bcl-Xl protein. The Kd values were generated by fitting the experimental data using a sigmoidal dose-response nonlinear regression model.
(§2) Compound inhibitory concentration values, IC50 (50% reduction in fluorescence polarization), were determined using fluorochrome-labeled BH3 peptides and recombinant Bcl proteins in fluorescence polarization assays (FPAs). Compounds diluted in DMSO (0.5 ul) were transferred (in duplicate) to individual wells of a 384-well plate. The fluorochrome-labeled peptide was added followed by recombinant protein addition. Each binding FPA reaction (50 ul) contained BIM BH3 peptide (5 nM) or BAK BH3 peptide (1.5 nM) and Bcl-b (40 nM), Mcl-1 (28 nM), Bcl-2 (11 nM) or Bcl-Xl. (5 nM) protein suspended in assay buffer [20 mM sodium phosphate, pH 7.4, 1 mM EDTA, 50 mM NaCl., 0.05% Pluronic F68]. Reaction mixtures were incubated at ambient temperature for 60 minutes prior to measuring polarization (mP) using an Analyst (LJL, Molecular Devices, Sunnyvale, Calif.) programmed to detect an emission wavelength of 530 nm after excitation (excitation wavelength=485 nm).
(§3) Competitive compound inhibition constants (Ki) were calculated using FPA experimental data and a mathematical equation, Ki=[I]50/([L]50/Kd+[P]0/Kd+1), where [I]50 denotes free inhibitor concentration at 50% inhibition, [L]50 is free labeled ligand concentration at 50% inhibition, [P]0 is free protein concentration at 0% inhibition, and Kd is the dissociation constant of the protein-ligand complex.

Mcl-1 = molecular target: T2, Mcl-1 (Homo sapiens, UniProt Q07820); test: Mcl-1/Bim fluorescence polarization assay (FPA); conditions: BIM BH3 peptide 5 nM, Mcl-1 28 nM, Ki calculated from FPA data
T2 construct: without their C-terminal transmembrane domain; GST; made in house
T2 sequence (Q07820 1-327 limits assumed): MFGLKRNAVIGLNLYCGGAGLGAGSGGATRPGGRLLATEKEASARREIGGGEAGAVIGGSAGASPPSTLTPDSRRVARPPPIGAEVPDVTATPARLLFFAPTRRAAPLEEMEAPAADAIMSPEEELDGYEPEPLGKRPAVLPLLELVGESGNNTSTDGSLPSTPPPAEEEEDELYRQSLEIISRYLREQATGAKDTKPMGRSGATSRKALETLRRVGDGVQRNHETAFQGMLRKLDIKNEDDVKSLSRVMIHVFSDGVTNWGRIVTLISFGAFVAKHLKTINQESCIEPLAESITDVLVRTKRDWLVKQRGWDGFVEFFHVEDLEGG
Text: as §1, §2, §3

Bcl-b = molecular target: T3, Bcl-b (Homo sapiens, UniProt Q9HD36); test: Bclb/Bim fluorescence polarization assay (FPA); conditions: BIM BH3 peptide 5 nM, Bcl-b 40 nM, Ki calculated from FPA data
T3 construct: without their C-terminal transmembrane domain; GST; made in house
T3 sequence (Q9HD36 1-182 limits assumed): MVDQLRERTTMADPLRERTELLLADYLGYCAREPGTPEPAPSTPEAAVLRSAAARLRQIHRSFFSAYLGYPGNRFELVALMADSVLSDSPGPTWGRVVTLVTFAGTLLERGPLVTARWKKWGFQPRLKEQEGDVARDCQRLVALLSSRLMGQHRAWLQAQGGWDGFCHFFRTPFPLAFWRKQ
Text: as §1, §2, §3

| Compound | Ki (Bcl-2) [nM] | Ki (Mcl-1) [nM] | Ki (Bcl-b) [nM] |
| --- | --- | --- | --- |
| CS(=O)(=O)c1ccc(CN(Cc2cccc(CNS(=O)(=O)c3cc(Cl)cc(Cl)c3O)c2)S(=O)(=O)c2cc(Cl)cc(Cl)c2O)cc1 [Example 56, 3,5-dichloro-N-(3-((3,5-dichloro-2-hydroxyphenyl-sulfonamido)methyl)benzyl)-2-hydroxy-N-(4-(methylsulfonyl)benzyl) benzenesulfonamide] | 148 | 187 | 103 |
| O=S(=O)(c1cc(Cl)cc(Cl)c1)N(Cc1ccc(F)cc1)Cc1cccc(CN(Cc2ccc(F)cc2)S(=O)(=O)c2cc(Cl)cc(Cl)c2O)[n+]1[O-] [Example 92, 2-((3,5-dichloro-N-(4-fluorobenzyl)-2-hydroxyphenylsulfonamido)methyl)-6-((3,5-dichloro-N-(4-fluorobenzyl)phenylsulfonamido)methyl)pyridine 1-oxide] | 46 | 60 | 12 |
| CC(C)CN(Cc1cc(Cl)cc(CN(CC(C)C)S(=O)(=O)c2cc(Cl)cc(Cl)c2O)c1)C(=O)c1cccc(S(=O)(=O)C(F)(F)F)c1 [Example 73, N-(3-chloro-5-((3,5-dichloro-2-hydroxy-N-isobutylphenylsulfonamido)methyl)benzyl)-N-isobutyl-3-(trifluoromethylsulfonyl)benzamide] | 319 | 384 | 144 |
| CCN(CC)CCOc1ccc(CN(Cc2cccc(CNS(=O)(=O)c3cc(Cl)cc(Cl)c3O)c2)S(=O)(=O)c2cc(Cl)cc(Cl)c2O)cc1 [Example 61, 3,5-dichloro-N-(3-((3,5-dichloro-2-hydroxyphenylsulfonamido)methyl)benzyl)-N-(4-(2-(diethylamino)ethoxy)benzyl)-2-hydroxybenzenesulfonamide] | 500 | 1020 | 133 |
| O=C(c1cccc(CN(Cc2ccc(F)cc2)S(=O)(=O)c2cc(Cl)cc(Cl)c2O)c1)N(Cc1ccc(F)cc1)Cc1cc(Cl)cc(Cl)c1 [Example 95, 3-((3,5-Dichloro-N-(4-fluorobenzyl)-2-hydroxyphenylsulfonamido)methyl)-N-(3,5-dichlorobenzyl)-N-(4-fluorobenzyl)benzamide] | 120 | 70 | 60 |
| CC(C)N(Cc1ccccc1)C(=O)c1ccc(CN(Cc2ccc(F)cc2)S(=O)(=O)c2cc(Cl)cc(Cl)c2O)cc1 [Example 107, N-Benzyl-4-((3,5-dichloro-N-(4-fluorobenzyl)-2-hydroxyphenylsulfonamido)methyl)-N-isopropylbenzamide] | 480 | 520 | 210 |
| O=C(O)c1ccc(S(=O)(=O)NCc2cccc(CN(Cc3ccc(-c4ccccc4)cc3)S(=O)(=O)c3cc(Cl)cc(Cl)c3O)c2)cc1 [Example 49, 4-(N-(3-((N-(biphenyl-4-ylmethyl)-3,5-dichloro-2-hydroxyphenyl-sulfonamido)methyl)benzyl)sulfamoyl)benzoic acid] | 347 | 204 | 138 |
| O=C(c1ccc(CN(Cc2ccc(F)cc2)S(=O)(=O)c2cc(Cl)cc(Cl)c2O)cc1)N1CCCCC1 [Example 130] | 840 | 2060 | 440 |
| O=S(=O)(NCc1cccc(CN(Cc2ccccc2SC(F)(F)F)S(=O)(=O)c2cc(Cl)cc(Cl)c2O)c1)c1cc(Cl)cc(Cl)c1O [Example 64] | 96 | 169 | 74 |
| CC(C)CCNC(=O)c1ccc(CN(Cc2ccc(F)cc2)S(=O)(=O)c2cc(Cl)cc(Cl)c2O)cc1 [Example 135, 4-((3,5-Dichloro-N-(4-fluorobenzyl)-2-hydroxyphenylsulfonamido)methyl)-N-isopentylbenzamide] | 610 | 490 | 280 |
| CC(C)CN(Cc1ccc(CN(CC(C)C)S(=O)(=O)c2cc(Cl)cc(Cl)c2O)cc1)S(=O)(=O)c1cc(Cl)cc(Cl)c1O [Example 97, N-Isobutyl-N-{4-[(isobutyl-(3,5-dichloro-2-hydroxybenzene)sulfonyl-amino)-methyl]-benzyl}-(3,5-dichloro-2-hydroxybenzene)sulfonamide] | 110 | 100 | 70 |

Now from value to molecule:

| Ki (Bcl-2) [nM] | Ki (Mcl-1) [nM] | Ki (Bcl-b) [nM] | Compound |
| --- | --- | --- | --- |
| 820 | 1760 | 450 | CCCCNC(=O)c1ccc(CN(Cc2ccc(F)cc2)S(=O)(=O)c2cc(Cl)cc(Cl)c2O)cc1 [Example 138, N-Butyl-4-((3,5-dichloro-N-(4-fluorobenzyl)-2-hydroxyphenylsulfonamido)methyl)-benzamide] |
| 520 | 1570 | 450 | O=S(=O)(c1cc(Cl)cc(Cl)c1O)N(Cc1ccc(Cl)cc1)Cc1cccc(-c2ccc(Cl)cc2)n1 [Example 274, 3,5-Dichloro-N-(4-chlorobenzyl)-N-((6-(4-chlorophenyl)pyridin-2-yl)methyl)-2-hydroxybenzenesulfonamide] |
| 960 | 1730 | 450 | NS(=O)(=O)c1ccc(CNC(=O)c2ccc(CN(Cc3ccc(F)cc3)S(=O)(=O)c3cc(Cl)cc(Cl)c3O)cc2)cc1 [Example 147, 4-((3,5-Dichloro-N-(4-fluorobenzyl)-2-hydroxyphenylsulfonamido)methyl)-N-(4-sulfamoylbenzyl)benzamide] |
| 90 | 50 | 90 | O=S(=O)(c1cc(Cl)cc(Cl)c1O)N(Cc1ccc(F)cc1)Cc1cccc(-c2ccc(Cl)cc2)c1 [Example 232, 3,5-Dichloro-N-((4′-chlorobiphenyl-3-yl)methyl)-N-(4-fluorobenzyl)-2-hydroxybenzenesulfonamide] |
| 170 | 30 | 30 | COc1c(Cl)cc(CN(CCn2ccc3ccccc32)S(=O)(=O)c2cc(C(=O)NCc3ccccc3)cc(Cl)c2O)cc1-c1ccc(Cl)cc1 [Example 222, 3-(N-(2-(1H-Indol-1-yl)ethyl)-N-((4′,5-dichloro-6-methoxybiphenyl-3-yl)methyl)sulfamoyl)-N-benzyl-5-chloro-4-hydroxybenzamide] |
| 3730 | 2280 | 500 | COC(=O)c1cc(Cl)cc(S(=O)(=O)N(Cc2ccc(F)cc2)Cc2cccc(-c3ccc(Cl)cc3)c2)c1O [Example 226, Methyl 5-chloro-3-(N-((4′-chloro-biphenyl-3-yl)methyl)-N-(4-fluorobenzyl)sulfamoyl)-2-hydroxybenzoate] |
| 130 | 2120 | 140 | CCCCc1ccc(-c2cccc(CN(Cc3ccc(F)cc3)S(=O)(=O)c3cc(Cl)cc(Cl)c3O)c2)cc1 [Example 256, N-((4′-Butylbiphenyl-3-yl)methyl)-3,5-dichloro-N-(4-fluorobenzyl)-2-hydroxybenzenesulfonamide] |
| 180 | 550 | 150 | CC(C)CN(Cc1cccc(CN(Cc2ccc(-c3ccc(F)cc3)cc2)S(=O)(=O)c2cc(Cl)cc(Cl)c2O)c1)C(=O)c1ccc2[nH]c(=O)c(=O)[nH]c2c1 [Example 190, N-(3-((3,5-Dichloro-N-((4′-fluorobiphenyl-4-yl)methyl)-2-hydroxyphenylsulfonamido)methyl)-benzyl)-N-isobutyl-2,3-dioxo-1,2,3,4-tetrahydroquinoxaline-6-carboxamide] |
| 370 | 450 | 170 | O=C(N[C@H]1C[C@@H]1c1ccccc1)c1ccc(CN(Cc2ccc(F)cc2)S(=O)(=O)c2cc(Cl)cc(Cl)c2O)cc1 [Example 143, 4-((3,5-Dichloro-N-(4-fluorobenzyl)-2-hydroxyphenylsulfonamido)methyl)-N-((1S,2R)-2-phenylcyclopropyl)benzamide] |
| 250 | 480 | 220 | CN(CCc1ccccc1)C(=O)c1ccc(CN(Cc2ccc(F)cc2)S(=O)(=O)c2cc(Cl)cc(Cl)c2O)cc1 [Example 137, 4-((3,5-Dichloro-N-(4-fluorobenzyl)-2-hydroxyphenylsulfonamido)methyl)-N-methyl-N-phenethylbenzamide] |
